Measured values reported in the CheMixHub ionic liquid set.

Test: xn = mol fraction of the nth substance listed
Details: 101 kPa

CCCC[n+]1ccn(C)c1.CS(=O)(=O)[O-] + O
Details | electrical conductivity [S/m] | viscosity [mPa·s]
298.15 K, x2 = 0.6542 | – | 31.9
298.15 K, x2 = 0.7014 | – | 25.2
298.15 K, x2 = 0.7494 | – | 19.09
298.15 K, x2 = 0.796 | 1.23 | –
298.15 K, x2 = 0.951 | 4.06 | –
298.15 K, x2 = 0.975 | – | 1.643
299.15 K, x1 = 0.008 | 2.11 | –
299.15 K, x2 = 0.892 | 2.96 | –
299.15 K, x2 = 0.951 | 4.12 | –
300.15 K, x1 = 0.004 | 1.24 | –
301.15 K, x2 = 0.861 | 2.53 | –
302.15 K, x2 = 0.861 | 2.61 | –
305.15 K, x1 = 0.004 | 1.37 | –
305.15 K, x2 = 0.861 | 2.84 | –
306.15 K, x1 = 0.004 | 1.4 | –
307.15 K, x1 = 0.008 | 2.51 | –
308.15 K, x1 = 0.019 | 4.06 | –
308.15 K, x2 = 0.861 | 3.08 | –
308.15 K, x2 = 0.968 | 4.94 | –
309.15 K, x2 = 0.968 | 5.03 | –
310.15 K, x1 = 0.019 | 4.22 | –
310.15 K, x2 = 0.861 | 3.25 | –
310.15 K, x2 = 0.892 | 4.03 | –
310.15 K, x2 = 0.968 | 5.11 | –
311.15 K, x2 = 0.861 | 3.35 | –
313.15 K, x2 = 0.892 | 4.42 | –
313.15 K, x2 = 0.9004 | – | 3.71
315.15 K, x2 = 0.968 | 5.63 | –
316.15 K, x2 = 0.951 | 6.44 | –
317.15 K, x1 = 0.004 | 1.7 | –
317.15 K, x2 = 0.951 | 6.52 | –
317.15 K, x2 = 0.968 | 5.83 | –
318.15 K, x2 = 0.929 | 5.89 | –
319.15 K, x2 = 0.861 | 4.14 | –
319.15 K, x2 = 0.968 | 6.08 | –
320.15 K, x1 = 0.004 | 1.79 | –
320.15 K, x1 = 0.019 | 5.15 | –
320.15 K, x2 = 0.892 | 5.23 | –
320.15 K, x2 = 0.968 | 6.17 | –
321.15 K, x2 = 0.968 | 6.3 | –
322.15 K, x2 = 0.892 | 5.48 | –
322.15 K, x2 = 0.929 | 6.42 | –
323.15 K, x2 = 0.8015 | – | 6.16
323.15 K, x2 = 0.9503 | – | 1.503
323.15 K, x2 = 0.951 | 7.08 | –
324.15 K, x1 = 0.004 | 1.91 | –
324.15 K, x1 = 0.008 | 3.39 | –
324.15 K, x1 = 0.019 | 5.48 | –
324.15 K, x2 = 0.892 | 5.72 | –
325.15 K, x1 = 0.008 | 3.45 | –
325.15 K, x1 = 0.019 | 5.57 | –
325.15 K, x2 = 0.929 | 6.93 | –
326.15 K, x1 = 0.004 | 1.98 | –
326.15 K, x2 = 0.929 | 6.92 | –
326.15 K, x2 = 0.968 | 6.88 | –
327.15 K, x2 = 0.861 | 5.02 | –
327.15 K, x2 = 0.929 | 7.05 | –
328.15 K, x1 = 0.019 | 5.74 | –
328.15 K, x2 = 0.951 | 7.6 | –
329.15 K, x2 = 0.968 | 7.25 | –
331.15 K, x1 = 0.019 | 6.08 | –
331.15 K, x2 = 0.861 | 5.49 | –
332.15 K, x2 = 0.929 | 7.74 | –
332.15 K, x2 = 0.951 | 8.16 | –
333.15 K, x2 = 0.7014 | – | 8.05
333.15 K, x2 = 0.8015 | – | 4.67
333.15 K, x2 = 0.9004 | – | 2.3
333.15 K, x2 = 0.9503 | – | 1.24
333.15 K, x2 = 0.968 | 7.66 | –
334.15 K, x2 = 0.968 | 7.78 | –
335.15 K, x1 = 0.004 | 2.24 | –
336.15 K, x1 = 0.004 | 2.27 | –
336.15 K, x2 = 0.951 | 8.7 | –
337.15 K, x2 = 0.861 | 6.31 | –
337.15 K, x2 = 0.929 | 8.44 | –
338.15 K, x1 = 0.019 | 6.52 | –
338.15 K, x2 = 0.861 | 6.33 | –
338.15 K, x2 = 0.951 | 8.96 | –
339.15 K, x2 = 0.968 | 8.41 | –
341.15 K, x2 = 0.892 | 7.89 | –
342.15 K, x1 = 0.004 | 2.44 | –
342.15 K, x2 = 0.861 | 6.89 | –
342.15 K, x2 = 0.892 | 7.96 | –
343.15 K, x1 = 0.004 | 2.46 | –
343.15 K, x2 = 0.6542 | – | 7.44
343.15 K, x2 = 0.8521 | – | 2.67
343.15 K, x2 = 0.892 | 8.05 | –
344.15 K, x2 = 0.929 | 9.45 | –
345.15 K, x1 = 0.004 | 2.53 | –
345.15 K, x2 = 0.951 | 10 | –
345.15 K, x2 = 0.968 | 8.98 | –
346.15 K, x1 = 0.008 | 4.56 | –
346.15 K, x2 = 0.951 | 10.1 | –
347.15 K, x2 = 0.861 | 7.63 | –
347.15 K, x2 = 0.892 | 8.62 | –
348.15 K, x1 = 0.004 | 2.61 | –
348.15 K, x2 = 0.892 | 8.76 | –
349.15 K, x2 = 0.861 | 7.79 | –
349.15 K, x2 = 0.951 | 10.6 | –
350.15 K, x1 = 0.019 | 7.75 | –
352.15 K, x1 = 0.019 | 7.98 | –
352.15 K, x2 = 0.951 | 10.9 | –
353.15 K, x1 = 0.004 | 2.76 | –
353.15 K, x2 = 0.861 | 8.33 | –
353.15 K, x2 = 0.951 | 11.1 | –
354.15 K, x2 = 0.861 | 8.44 | –
355.15 K, x1 = 0.004 | 2.83 | –
355.15 K, x2 = 0.968 | 10.3 | –
356.15 K, x1 = 0.004 | 2.82 | –
357.15 K, x1 = 0.004 | 2.86 | –
357.15 K, x2 = 0.929 | 11.3 | –
357.15 K, x2 = 0.951 | 11.3 | –
358.15 K, x2 = 0.892 | 10.1 | –
